Source: patent publication US3937821A, “Plasma substitute including artificial starch and method for the preparation thereof” (Kyorin Seiyaku Kabushiki Kaisha, priority 1971, dated 1976)

Key:
antibodies in human sera [1] = details: cited from earlier work
patients = details: human, in vivo; cited from earlier work
Rats [2] = details: rat, in vivo
Mice [3] = details: mouse, in vivo; cited from earlier work
Mice [4] = details: mouse, in vivo
Mice [5] = details: mouse, in vivo; remark: listed apart in the source
Procedure: (§1) Sera from all bleedings were analysed by passive cutaneous anaphylaxis reaction. Arthus reaction in rabbits and active anaphylaxis reaction in guinea pigs were performed too.

humans = details: in vivo, iv
Rats [6] = details: rat, in vivo; cited from earlier work
antibodies in human sera [7] = system: antibodies in human sera
Rabbits = details: rabbit, in vivo
Procedure: as §1

guinea pigs = details: guinea pig, in vivo
Procedure: as §1

## Dextran
Antibodies in human sera [1]
  human sera contain reacting antibodies; anaphylactic reaction after infusion: human sera contain Dextran reacting antibodies of varying types
patients
  renal lesion or anaphylactic shock: 6 - 8%
Rats [2]
  anaphylactoid purpura: anaphylactoid purpura appeared in the paws, ears and tail
Rats [2]; iv
  anaphylactoid inflammation: acute, serous anaphylactoid inflammation in the ears, snout and tail
Mice [3]
  anaphylactoid reaction: edema and erythema of paws, ears and snout
Mice [4]
  anaphylactoid purpura: anaphylactoid purpura appeared in the paws, ears and tail
Mice [4]; iv
  anaphylactoid inflammation: acute, serous anaphylactoid inflammation in the ears, snout and tail
Mice [5]
  circulating antibodies: circulating antibodies were detected
humans
  antibody production: do not lead to antibody production
Rats [6]
  anaphylactoid reaction: edema and erythema of paws, ears and snout
Antibodies in human sera [7]
  sera positive in passive cutaneous anaphylaxis reaction: Three sera gave positive a reaction
Rabbits
  antibodies detectable / immunogenicity: not immunogenic
Guinea pigs
  antibodies detectable / immunogenicity: not immunogenic
